From patent US11426441B2, “Composition comprising protein phosphatase 1 inhibitory peptide for treating vascular diseases” (BethphaGen Inc., priority 2016, dated 2022)
No end group written: not given here.

Test system: SERCA2a
Assay: SERCA2a level and stability in RASMCs (immunostaining, western blotting)
Assay type: cell-based, rat
Conditions: synthetic conditions, 3 μM peptide
Method: Rat aortic smooth muscle cells (RASMCs) were fixed in 4% (w/v) paraformaldehyde at room temperature for 10 min, washed with PBS, and then transmitted with 0.1% (v/v) Triton X-100 in PBS for 40 min. After washing and blocking with 3% (w/v) BSA in PBS, the cells were incubated overnight at room temperature with antibodies against SERCA2a (1:250), SERCA2b (1:250), and PCNA (1:50). On the following day, the cells were washed with PBS and incubated with anti-rabbit and anti-mouse IgG conjugated to Alexa Fluor 488 and 594, respectively, for 1 hour at room temperature. The cells were treated with FluoroGuard antifade reagent (Bio-Rad, Hercules, Calif., USA), and the coverslips were examined under a fluorescent microscope.
Vascular smooth muscle cells (VSMCs) were homogenized in a minimal volume of 50 mM Tris-HCl, pH 7.4, supplemented with a broad-spectrum protease inhibitor cocktail (Calbiochem). The proteins were separated by SDS-PAGE and then transferred to polyvinylidene fluoride membranes (Schleicher & Schuell). After blocking with 5% (w/v) non-fat milk for 1 hour and washing with TBST, the membranes were incubated with antibodies against SERCA2a, SERCA2b (21st century biochemical), PCNA (abcam), GAPDH (Sigma-Aldrich), phospho-eNOS, eNOS, phospho-eIF2α, eIF2α (cell signaling), Vimentin, α-SMA, BMPR2 (Santa cruz), phospho-Akt, Akt (cell signaling), phospho-phospholamban (Merck), and Phospholamban (cell signaling). The membranes were then incubated with horseradish peroxidase-conjugated secondary antibodies (Jackson ImmunoResearch, West Grove, Pa., USA) and developed using a chemiluminescent substrate (Dogen). The blots were scanned and quantified using LAS software.
RASMCs were cultured in DMEM supplemented with 0.1% (v/v) FBS (Contractile) or in DMEM supplemented with 10% (v/v) FBS (Synthetic) in the presence of 3 μM control or ψPLB-SE peptide. Cycloheximide (Sigma) was added to media to a final concentration of 5 μg/ml. Cells were harvested after 0, 3, and 5 days of incubation and their protein extracts were subjected to western blotting.

## RAETIEMPQ (not fully specified) [ψPLB-SE, 9-mer PP1 decoy peptide mimicking phosphorylated PLB; conjugated via GGG linker to cell penetrating peptide dNP2 or TAT]
  SERCA2a reduction (immunostaining): completely inhibited
  reduction of SERCA2a (western blotting): inhibited
Cycloheximide 5 μg/ml
  stability of SERCA2a: restored nearly to the level observed under contractile conditions
